Tests used:
[1] = cited from earlier work
JEV [2] = assay: Western blotting of JEV envelope (E) protein expression in infected BHK-21 cells; assay type: cell-based, Japanese encephalitis virus; conditions: MOI 0.01, 48 h, normalized to GAPDH
Description: BHK-21 cells in 12-well plates were infected with JEV at MOI 0.01. The compounds were then added to cells at final concentrations of 10 and 20 µM. After incubation for 48 h, expression of JEV envelope (E) protein was detected by western blotting. The cells were collected after trypsin digestion and washed in PBS. The cell suspension was mixed with an equal volume of 2×SDS sample buffer. The proteins were electrophoresed in 12% SDS-PAGE and transferred to a nitrocellulose filter membrane (Millipore, Darmstadt, Germany). Western blotting was performed with JEV E protein-specific monoclonal antibody (Mab; 1∶500, constructed in our laboratory) or GAPDH-specific Mab (1∶1000; Proteintech, Chicago, IL, USA) as the primary antibodies, followed by addition of horseradish-peroxidase-conjugated goat anti-mouse IgG (Boster, Wuhan, China) as the secondary antibody. Finally, the protein blots were detected with SuperSignal West Pico Chemiluminescent Substrate (Thermo Scientific, Rockford, IL, USA) and imaged by a MF-ChemiBIS 3.2 (DNR Bio-Imaging Systems, Mahale Hahamisha, Israel). The expression of E and GAPDH was quantified by gray-value analysis using software ImageJ. The expression of E protein was normalized by the expression of GAPDH and the changes of E expression were calculated by comparing to the non-compound treated group.

[3] = Cytotoxicity of compounds (Celltiter-Glo cell viability); assay type: cell-based; conditions: hamster; BHK-21 cells, 120 h incubation; read-out: CC50 (50% cytotoxicity concentration)
Description: (§1) Cell viability was evaluated by Celltiter-Glo Luminescent Cell Viability Assay reagent (Promega, Madison, WI, USA) following the manufacturer's protocol. An equal volume of Celltiter-Glo reagents was added to the cells in 96-well white plates (Corning, Tewksbury, MA, USA) and mixed for 2 min on an orbital shaker and incubated for a further 10 min at room temperature. The luminescence of each well was measured by a 1450 MicroBeta TriLux (Perkin Elmer, Waltham, MA, USA). Percentage of cell viability was calculated as follows: Percentage of cell viability = 100× (luminescence of experimental group/luminescence of control group).
BHK-21 cells were seeded in 96-well white plates at 10,000 cells per well. After 12 h incubation for cell attachment, different concentrations of compounds were added to the cells. Cell viability was tested as described above after 120 h incubation. The 50% cytotoxicity concentration (CC50) was calculated by nonlinear regression analysis.

JEV [4] = assay: Plaque reduction assay; assay type: cell-based, Japanese encephalitis virus
Description: BHK-21 cells were plated in 96-well plates at a density of 10,000 cells per well and grown for 12 h for cell attachment. The cells were infected with JEV at MOI 0.01 in the presence of different concentrations (20, 15, 10, and 5 µM) of compounds. Each concentration was assayed in triplicate. Forty-eight hours post-infection, the viruses in each group were harvested by freezing/thawing three times and mixed in a tube. Then, 50 µL virus suspension was inoculated into BHK-21 cells in 12-well plates for the plaque assay, as previously described.

JEV (P3 strain) = assay: CPE-based EC50 assay, JEV-infected BHK-21 cells; assay type: cell-based, Japanese encephalitis virus; conditions: for EC50: Japanese encephalitis virus, BHK-21, 120 h; for selectivity index: from CC50 and EC50 in BHK-21 cells
Description: as §1
BHK-21 cells were seeded onto 96-well plates at 10,000 cells per well. After 12 h incubation, the culture supernatant was replaced with maintenance medium. One microliter of each compound was added to 99 µL maintenance medium in the first well, followed by twofold serial dilutions for two wells. After full mixing in the third well, 50 µL medium was discarded. Then, 50 µL maintenance medium containing 0.02 MOI JEV was added to each well. The plates were subjected to 30 s horizontal shaking to achieve thorough mixing. Three wells of mock-infected cells as well as three wells of JEV-infected cells containing 1% DMSO were set on each plate as controls. After 120 h incubation, the percentage of CPE inhibition was calculated as previously described: Percentage of inhibition = (luminescence of experimental group – average luminescence of virus control) / (average luminescence of cell control – average luminescence of virus control) ×100.
BHK-21 cells were seeded in 96-well white plates at 10,000 cells per well. Twelve hours later, the growth medium was replaced with maintenance medium containing 0.01 MOI JEV as well as different concentrations of compounds. Cell incubation was continued for 120 h, and the percentage of inhibition was measured as described above. The EC50 values were calculated by nonlinear regression analysis.

JEV [5] = assay: Indirect immunofluorescence assay (IFA, anti-NS5) in infected BHK-21 cells; assay type: cell-based, Japanese encephalitis virus; conditions: MOI 0.01, 48 h post-infection; for JEV-negative cells: 5 µM compound; for JEV replication / JEV-positive cells (IFA): 20 µM compound
Description: BHK-21 cells were seeded in 12-well plates and inoculated with JEV at MOI 0.01 after 12 h incubation. The compounds were added to cells at concentrations of 5 or 20 µM. After incubation for a further 48 h, virus replication in the cells was evaluated by IFA. The cells were fixed in formaldehyde for 5 min and were incubated with anti-NS5 Mab (1∶500) and then FITC-conjugated goat anti-mouse antibody (Boster) for 30 min respectively. Finally, the cells were stained with DAPI (Sigma-Aldrich) and imaged by a fluorescence microscope (Olympus IX70; Olympus, Tokyo, Japan).

[6] = cited from earlier work; remark: listed apart in the source

Compound | MLD50 [1] | E expression decrease (gray-value analysis) (JEV [2]; 10 µM compound) | E expression decrease (gray-value analysis) (JEV [2]; 20 µM compound) | CC50 at 120 h [3] | replication of JEV (JEV [4]; 20 or 15 µM compound) | EC50 (JEV (P3 strain)) | selectivity index (JEV (P3 strain)) | JEV-negative cells (JEV [5]) | JEV replication / JEV-positive cells (IFA) (JEV [5]) | ability to enter the brain [6] | number of plaques (JEV [4]; 10 µM compound, 48 h, MOI 0.01) | virus titer (JEV [4]; 10 µM compound, 48 h, MOI 0.01, untreated 2.7×10^6 PFU/mL)
COCCOC(=O)C1=C(C)NC(C)=C(C(=O)OC/C=C/c2ccccc2)C1c1cccc([N+](=O)[O-])c1 (centres unmarked) [cilnidipine] | > 5 g/kg | ~56% | ~75% | > 200 µM | almost completely inhibited | 6.52 µM | 30.67 | ~60% | Absolute inhibition of JEV replication | – | – | –
O=C(Nc1ccc([N+](=O)[O-])cc1Cl)c1cc(Cl)ccc1O [niclosamide] | – | about 85% | – | 43.3 µM | – | 5.8 µM | 7.49 | ~30% | few cells were JEV-positive | – | – | –
CCCCCCN(CCCCCC)C(=O)Cc1c(-c2ccc(F)cc2)[nH]c2ccccc12 [FGIN-1-27, N,N-dihexyl-2-(4-fluorophenyl)indole-3-acetamide] | – | – | – | 124 µM | – | 3.21 µM | 38.79 | about 80% | few cells were JEV-positive | had the ability to enter the brain | < 20 | < 400 PFU/mL
